Data: US10792236B2, “Dentifrice comprising zinc-amino acid complex” (Colgate-Palmolive Company, priority 2012, dated 2020)
“And” between values parts separate entries of the source, which are not always exact repeats. Identical values can stand only once.

Tests used:
[1] = Dilution experiment of ZLC neat solution: visible flocculation/precipitation at 37° C.; format: physicochemical
Procedure: Various dilutions of ZLC are prepared to evaluate its efficiency in producing visible precipitates and/or flocculation, which can be delivered in situ onto an oral surface or into a dental opening, such as open tubules.
(§1) A neat solution of ZLC is prepared by 1), reacting 0.5 mole of ZnO powder with 1 mole of lysine HCl in 1 liter of water at room temperature for about 2 hours, and 2) collecting the supernatant through centrifugation followed by filtration using a 0.45 micron membrane. The neat solution has a zinc concentration of 2.39% by weight, and a pH of about 7.03.
(§2) Dilution experiment is conducted by mixing the neat solution with deionized water. The neat solution is diluted by 2×, 4×, 6×, 7×, 8×, 10×, 12×, 16×, 20×, 24×, 28×, and 32×, corresponding to initial zinc concentrations of 1.20%, 0.598%, 0.398%, 0.341%, 0.299%, 0.239%, 0.199%, 0.149%, 0.120%, 0.0996%, 0.0854%, 0.0747%, by weight, respectively. The diluted samples are kept at 37° C., and the rates at which flocculation/precipitation occurred are monitored.

[2] = pH of ZLC neat solution and final diluted samples; format: physicochemical; settings: for final pH value: diluted sample
Procedure: as §1, §2
pH values of final diluted samples are suitable for oral care applications. […] These pH values were well within the range of 5.5 to 10, which defines the suitable range for oral care formulations.

[3] = Deposition/occlusion assay on dentine slices, confocal imaging; design: species or system human
Procedure: The deposition/occlusion assay is conducted using human dentine slices and the neat solution of Example 5. The dentine slices were prepared by cutting human tooth into thin dentine sections of about 800 microns in thickness, choosing a test side, sanding said test side using a sandpaper of about 600 grit, polishing said test side using a Buehler polishing cloth and 5 micron Buehler aluminum oxide, acid-etching said dentine section in 1% (by weight) citric acid solution for about 20 seconds, sonicating said dentine section for 10 minutes, and storing said dentine section in phosphate buffered saline (PBS, pH 7.4).
For treatment, the neat solution is diluted 16-fold with water, yielding a treatment solution with initial zinc concentration of about 0.149% by weight. The dentine section is immersed in the treatment solution for 1 hour at 37° C. The treated dentine section is then removed from the treatment solution, and rinsed 4 times, each time with 1 mL of PBS. The dentine section is then dried using a paper-based tissue and examined under confocal microscope in both XYZ and XYZ modes. Subsequent treatments are conducted in the same manner.
Dentine sections, as prepared in Example 6, are repeatedly treated with ZLC dilutions with initial zinc concentration of 0.0747% by weight. […] The dentine section is examined under the confocal microscope after each treatment.

initial zinc concentration of additional sample showing flocculation ([1]; two hours after mixing): 0.299%
initial zinc concentrations of dilutions with visible flocculation ([1]; within 30 minutes from mixing with water): 0.149% and 0.199%
final pH value ([2]; initial zinc concentration 0.0747%): 7.99
final pH value ([2]; initial zinc concentration 0.0854%): 8.13
final pH value ([2]; initial zinc concentration 0.0996%): 8.11
final pH value ([2]; initial zinc concentration 0.120%): 7.97
final pH value ([2]; initial zinc concentration 0.149%): 7.99
final pH value ([2]; initial zinc concentration 0.199 wt %): 6.80
final pH value ([2]; initial zinc concentration 0.239%): 6.70
pH ([2]; neat solution, zinc 2.39% by weight): about 7.03
Substance: [Zn(C6H14N2O2)2Cl]^+ Cl^− [ZLC]
samples with flocculation and/or precipitation ([1]; after a total of 19 hours): all samples except the one with initial zinc concentration of 1.20%
deposition/occlusion on dentine surface ([3]; 4 consecutive treatments, initial zinc 0.0747%, 10 minutes at 37° C. each): significant surface deposition
deposition/occlusion on dentine surface ([3]; 12 consecutive treatments, initial zinc 0.0747%, 10 minutes at 37° C. each): complete surface coverage
visible precipitation during treatment ([3]; 32-fold dilution, initial zinc 0.0747%, 10 minutes at 37° C.): no precipitation is observed by naked eyes
thickness of surface deposits ([3]; after second treatment, 16-fold dilution, zinc about 0.149%): ≥ 10 microns
thickness of surface deposits ([3]; after third treatment, 16-fold dilution, zinc about 0.149%): ≥ 25 microns
deposition/occlusion on dentine surface ([3]; first treatment, neat solution diluted 16-fold, zinc about 0.149%, 1 hour at 37° C.): noticeable deposition
deposition/occlusion on dentine surface ([3]; second treatment, 16-fold dilution, zinc about 0.149%, 1 hour at 37° C. each): complete surface coverage, including blocking of substantially all tubule openings
deposition/occlusion on dentine surface ([3]; third treatment, 16-fold dilution, zinc about 0.149%, 1 hour at 37° C. each): complete surface coverage and complete blocking of tubule openings
